Laboratory results reported in patent US20100086483A1, “METHOD OF MULTIDETECTOR COMPUTED TOMAGRAPHY” (Gilead Palo Alto, Inc., priority 2008, published 2010).

System: conscious dogs
Assay: Effects of regadenoson on HR and CBF before and after metoprolol in conscious dogs
Type: in vivo, dog
Details: for Reg-induced tachycardia after metoprolol, % of control: metoprolol 1.5 mg/kg IV; for reduction of Reg-induced coronary vasodilation from control: metoprolol 1.5 mg/kg
Protocol: Five mongrel dogs were chronically instrumented for measurements of systemic hemodynamics and coronary blood flow (CBF). The effects of regadenoson (1, 2.5 and 5 μg/kg, IV) on HR and CBF were assessed before and after administration of the β1-adrenergic receptor blocker metoprolol (1.5 mg/kg). Values of peak CBF and the duration of the two-fold increase in CBF above baseline were used to assess Reg-induced coronary vasodilation.

SMILES: COCCc1ccc(OCC(O)CNC(C)C)cc1 (stereo not drawn) [metoprolol]
- Reg-induced tachycardia after metoprolol, % of control (Reg 1 μg/kg IV): 55±12 % of control
- Reg-induced tachycardia after metoprolol, % of control (Reg 2.5 μg/kg IV): 54±7 % of control
- Reg-induced tachycardia after metoprolol, % of control (Reg 5 μg/kg IV): 45±4 % of control
- reduction of Reg-induced coronary vasodilation from control (Reg 1 μg/kg IV): 11±7%
- reduction of Reg-induced coronary vasodilation from control (Reg 2.5 μg/kg IV): 10±4%
- reduction of Reg-induced coronary vasodilation from control (Reg 5 μg/kg IV): 21±2%
